Assay results as given in article PMC7843569, “Metagenomic identification, purification and characterisation of the Bifidobacterium adolescentis BgaC β-galactosidase” (Applied Microbiology and Biotechnology, 2021).

Experiments:
[1] = molecular target: T1, BgaC β-galactosidase (BAD_1582) (Bifidobacterium adolescentis, UniProt A1A3T0); assay: purified enzyme hydrolysis, specific activity, absorbance at […] nm; TLC; assay type: biochemical
[2] = molecular target: T1, BgaC β-galactosidase (BAD_1582); assay: purified enzyme; glucose-release kinetics (Km […]) and competitive inhibition of ONPG hydrolysis; assay type: biochemical
purified protein = substrate: O=[N+]([O-])c1ccccc1O[C@@H]1O[C@H](CO)[C@H](O)[C@H](O)[C@H]1O; assay: purified protein; details: divalent metal ion (Mg2+ gives maximum activity) enzyme active site

With `O=[N+]([O-])c1ccc(O[C@@H]2O[C@H](CO)[C@H](O)[C@H](O)[C@H]2O)cc1` [pNPG] as the molecule, how does the “purified enzyme hydrolysis, specific activity, absorbance at 420 nm; TLC” value [1] read?
Its value is 112 µmol/min/mg.

With `OC[C@H]1O[C@@H](O[C@H]2[C@H](O)[C@@H](O)C(O)O[C@@H]2CO)[C@H](O)[C@@H](O)[C@H]1O` (stereo partly drawn) [lactose] as the molecule, how does the Ki [2] read?
Its Ki is 100 µM.

B1: BgaC β-galactosidase (BAD_1582) (Bifidobacterium adolescentis ATCC 15703) (protein)
chain: MADTAELAIVHATTASASWLTDPTVFAANRKPAHSSHRYVIGETREPKQSLDGEWKVRIEQARNVDVESAPFAAVDFEDGDFGAIEVPGHLQMAGYLKNKYVNIQYPWDGHEDPQAPNIPENNHVAIYRRRFALDAQLARTLENDGTVSLTFHGAATAIYVWLDGTFVGYGEDGFTPSEFDVTEALRNGNGNAADSPEAEHTLTVACYEYSSASWLEDQDFWRLHGLFRTVELAAQPHTHVETVQLEADYTAADTAGTADTAELNAALTLRNPADAMTIESTLRDGDGNVVWESTQACNGEIALNSGKMTNIAPWSAESPTLYTLTVRVVGHDGAIIETVTQKIGFRTFRIENGIMTINGKRIVFKGADRHEFDAKRGRAITREDMLSDVVFCKRHNINAIRTSHYPNQEYWYDLCDEYGLYLIDETNMETHGTWVANNVERPEDGIPGSRPEWEGACVDRINSMMRRDYNHPSVLIWSLGNESSAGEVFRAMYRHAHTIDPNRPVHYEGSVHMREFEDVTDIESRMYAHADEIERYLNDGSPAHTDGPKKPYISCEYMHAMGNSCGNMDEYTALERYPMYQGGFIWDFIDQAIETKLPDGTTRMCYGGDFGDRPSDYEFSGDGLLFADRTPSPKAQEVKQLYANVKIAVSVDEARITNDNLFVSTGDYRFVLRILADGKPVWSTTRRFDVAAGESASFEVDWPVDDYRSNAEELVLEVSQQLGNACDWAPAGYELAFGQCVVAGAKTTADAVDAAGAPADGTVTLGRWNAGVRGQGREALFSRTQGGMVSYTFGEREFVLRRPSITTFRPLTDNDRGAGHAFERAAWAVAGKYARCVDCAIANRGENAVEATYTYELAIPQRTKVTVRYVADTAGLVSLDVEYPGEKNGDLPTIPAFGIEWALPVEYANLRFYGAGPEETYADRRHAKLGVWSTTAGDDCAPYLLPQETGNHEDVRWAEITDDSGHGVRVKRGAGAKPFAMSLLPYSSTMLEEALHQDELPKPRHMFLRLLAAQMGVGGDDSWMSPVHEQYQLPADQPLSLNVQLKLF
Which Km (purified protein) does the source give for B1 here?
Its Km is 2500 µM.
